Measurements published in ChEMBL document CHEMBL5727333, “3-amino-1,5,6,7-tetrahydro-4H-indol-4-ones” (2019).

Target: Mitotic checkpoint serine/threonine-protein kinase BUB1 (Homo sapiens, UniProt O43683)
Assay: Kinase Assay: In a typical assay 11 different concentrations of each compound (0.1 nM, 0.33 nM, 1.1 nM, 3.8 nM, 13 nM, 44 nM, 0.15 μM, 0.51 μM, 1.7 μM, 5.9 μM and 20 μM) were tested in duplicate within the same microtiter plate. To this end, 100-fold concentrated compound solutions (in DMSO) were previously prepared by serial dilution (1:3.4) of 2 mM stocks in a clear low volume 384-well source microtiter plate (Greiner Bio-One, Frickenhausen, Germany), from which 50 nl of compounds were transferred into a black low volume test microtiter plate from the same supplier. […] The resulting mixture (5 μL final volume) was incubated at 22° C. during 60 min., and the reaction was stopped by the addition of 5 μL of an aqueous EDTA-solution (50 mM EDTA, in 100 mM HEPES pH 7.5 and 0.2% (w/v) bovine serum albumin) which also contained the TR-FRET detection reagents (0.2 μM streptavidin-XL665 [Cisbio Bioassays, Codolet, France] and 1 nM anti-phosho-Serine antibody [Merck Millipore, cat. #35-002] and 0.4 nM LANCE EU-W1024 labeled anti-mouse IgG antibody [Perkin-Elmer, product no. AD0077, alternatively a Terbium-cryptate-labeled anti-mouse IgG antibody from Cisbio Bioassays can be used]). The stopped reaction mixture was further incubated 1 h at 22° C. in order to allow the formation of complexes between peptides and detection reagents.

Chain of Mitotic checkpoint serine/threonine-protein kinase BUB1 (O43683 whole entry): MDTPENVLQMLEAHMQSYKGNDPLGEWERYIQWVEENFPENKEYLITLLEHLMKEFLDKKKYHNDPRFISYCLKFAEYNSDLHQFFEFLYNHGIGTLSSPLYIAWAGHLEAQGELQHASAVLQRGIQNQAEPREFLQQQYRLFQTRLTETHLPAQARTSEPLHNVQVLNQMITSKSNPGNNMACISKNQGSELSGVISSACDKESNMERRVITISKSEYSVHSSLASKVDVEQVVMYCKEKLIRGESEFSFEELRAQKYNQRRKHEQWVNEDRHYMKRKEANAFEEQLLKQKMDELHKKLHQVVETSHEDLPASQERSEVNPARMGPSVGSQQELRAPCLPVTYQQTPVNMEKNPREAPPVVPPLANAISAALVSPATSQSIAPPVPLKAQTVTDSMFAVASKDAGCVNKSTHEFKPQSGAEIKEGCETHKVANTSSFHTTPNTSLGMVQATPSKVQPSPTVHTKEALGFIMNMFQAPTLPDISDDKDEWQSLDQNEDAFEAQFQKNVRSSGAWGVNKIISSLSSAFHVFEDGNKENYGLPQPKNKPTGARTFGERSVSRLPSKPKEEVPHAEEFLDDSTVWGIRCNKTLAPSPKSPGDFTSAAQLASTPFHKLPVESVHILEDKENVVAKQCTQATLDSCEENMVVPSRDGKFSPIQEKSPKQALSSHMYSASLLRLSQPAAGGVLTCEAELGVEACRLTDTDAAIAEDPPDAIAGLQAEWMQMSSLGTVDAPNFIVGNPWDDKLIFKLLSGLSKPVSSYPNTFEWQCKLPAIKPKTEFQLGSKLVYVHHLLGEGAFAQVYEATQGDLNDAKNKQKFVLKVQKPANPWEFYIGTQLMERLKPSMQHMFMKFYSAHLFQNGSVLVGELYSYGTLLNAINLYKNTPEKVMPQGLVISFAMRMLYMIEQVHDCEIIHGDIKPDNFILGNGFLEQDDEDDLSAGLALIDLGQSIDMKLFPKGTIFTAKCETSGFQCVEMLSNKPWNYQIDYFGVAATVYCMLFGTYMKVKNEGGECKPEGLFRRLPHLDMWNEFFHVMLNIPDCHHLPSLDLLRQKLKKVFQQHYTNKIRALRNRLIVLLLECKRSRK

| SMILES | IC50 |
| --- | --- |
| CC(=O)Nc1cc(-c2[nH]c3c(c2Nc2ccc(F)cc2)C(=O)CCC3)ccn1 | 58.9 nM |
| CC1(C)CC(=O)c2c([nH]c(-c3ccnc(Nc4cccc(F)c4)c3)c2Nc2cccc(F)c2)C1 | 497 nM |
| Cc1cccc(Nc2c(-c3ccncc3)[nH]c3c2C(=O)CC(C)(C)C3)c1F | 85.5 nM |
| CC1(C)CC(=O)c2c([nH]c(-c3ccnc(NS(C)(=O)=O)c3)c2Nc2ccccc2)C1 | 733 nM |
| CC1(C)CC(=O)c2c([nH]c(-c3ccnc(Cl)c3)c2Nc2ccccc2)C1 | 53.6 nM |
| CC1(C)CC(=O)c2c([nH]c(-c3ccnc(Br)c3)c2Nc2ccccc2)C1 | 99.8 nM |
| CS(=O)(=O)Nc1cc(-c2[nH]c3c(c2Nc2ccccc2)C(=O)CCC3)ccn1 | 6660 nM |
| CC(C)Oc1cccc(Nc2c(-c3ccncc3)[nH]c3c2C(=O)CC(C)(C)C3)c1 | 1170 nM |
